Patent publication US9023821B2, “Use of MicroRNA for treating diseases associated with a dysfunction of the cilia in multiciliated epithelial cells” (Centre National de la Recherche Scientifique, priority 2009, dated 2015)

Experiments:
[1] = test system: human airway epithelial cells (HAECs); assay: High-throughput sequencing (HTS) of miRNAs at four stages of differentiation of HAECs; settings: for Modulation (ratio of the level of intensity of expression in log2 in two stages of differentiation) measured by high-throughput sequencing, D7 − D0 / Modulation (ratio of the level of intensity of expression in log2 in two stages of differentiation) measured by high-throughput sequencing, FC − D7 / Modulation (ratio of the level of intensity of expression in log2 in two stages of differentiation) measured by high-throughput sequencing, WD − D0 / Modulation (ratio of the level of intensity of expression in log2 in two stages of differentiation) measured by high-throughput sequencing, WD − FC / Level of intensity of expression in log2 measured by high-throughput sequencing, D0 / Level of intensity of expression in log2 measured by high-throughput sequencing, D7 / Level of intensity of expression in log2 measured by high-throughput sequencing, FC / Level of intensity of expression in log2 measured by high-throughput sequencing, WD: Table VI; for Level of intensity of expression in log2 At the differentiated stage (WD) measured in HTS: healthy human airway epithelial tissue; for Level of intensity of expression in log2 measured by high-throughput sequencing, D0: stage D0; for Level of intensity of expression in log2 measured by high-throughput sequencing, D7: stage D7; for Level of intensity of expression in log2 measured by high-throughput sequencing, FC: stage FC; for Level of intensity of expression in log2 At the differentiated stage (WD) measured in HTS / Level of intensity of expression in log2 measured by high-throughput sequencing, WD: stage WD
Procedure, shortened: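 Differentiation time course at air-liquid interface: 0, 7, ~14 (first cilia) and ~21 days (fully differentiated). Sequencing counts per strand were normalized to 10^6 sequences and analysed by linear model with empirical Bayesian moderation.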

[2] = test system: human airway epithelial cells (HAECs); assay: Agilent miRNA chips, miRNA expression at four stages of differentiation of HAECs; settings: for Modulation (ratio of the level of intensity of expression in log2 in two stages of differentiation) measured with the Agilent chips, D7 − D0 / Modulation (ratio of the level of intensity of expression in log2 in two stages of differentiation) measured with the Agilent chips, FC − D7 / Modulation (ratio of the level of intensity of expression in log2 in two stages of differentiation) measured with the Agilent chips, WD − D0 / Modulation (ratio of the level of intensity of expression in log2 in two stages of differentiation) measured with the Agilent chips, WD − FC / Level of intensity of expression in log2 measured with the Agilent chips, D0 / Level of intensity of expression in log2 measured with the Agilent chips, D7 / Level of intensity of expression in log2 measured with the Agilent chips, FC / Level of intensity of expression in log2 measured with the Agilent chips, WD: Table VI; for Modulation (ratio of the level of intensity of expression in log2 at two stages of differentiation), FC − D7 / Modulation (ratio of the level of intensity of expression in log2 at two stages of differentiation), WD − FC: Agilent miRNA chips, Table V; for Level of intensity of expression in log2 measured with the Agilent chips, D0: stage D0; for Level of intensity of expression in log2 measured with the Agilent chips, D7: stage D7; for Level of intensity of expression in log2 measured with the Agilent chips, FC: stage FC; for Level of intensity of expression in log2 measured with the Agilent chips, WD: stage WD
Procedure, shortened: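 Patient RNA samples, the same ones analysed by high-throughput sequencing, were first labelled, then hybridized onto arrays carrying 866 human and 89 human viral miRNAs (miRBase v.12.0), following the supplied labelling and hybridization protocol.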

[3] = test system: basal cells and pyramidal cells of the airway epithelium; assay: miRNA expression in sorted basal cells versus pyramidal cells (ciliated + secretory), HTS and Agilent chips; parameters: species or system human; settings: for Modulation of expression of the miRNAs in pyramidal cells (323(−)) relative to basal cells 323(+): HTS and Agilent chips; for Intensity of the level of expression in log2 in pyramidal cells (323(−)): pyramidal cells (ciliated + secretory)
Procedure, shortened: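 Sorted basal versus ciliated/mucus-secreting cells; markers CD151 and tissue factor; donors n=3; miRNA by Agilent chip or HTS.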

Row | Substance | Modulation (ratio of the level of intensity of expression in log2 in two stages of differentiation) measured by high-throughput sequencing, D7 − D0 [1] | Modulation (ratio of the level of intensity of expression in log2 in two stages of differentiation) measured by high-throughput sequencing, FC − D7 [1] | Modulation (ratio of the level of intensity of expression in log2 in two stages of differentiation) measured by high-throughput sequencing, WD − D0 [1] | Modulation (ratio of the level of intensity of expression in log2 in two stages of differentiation) measured by high-throughput sequencing, WD − FC [1] | Level of intensity of expression in log2 At the differentiated stage (WD) measured in HTS [1] | Level of intensity of expression in log2 measured by high-throughput sequencing, D0 [1] | Level of intensity of expression in log2 measured by high-throughput sequencing, D7 [1] | Level of intensity of expression in log2 measured by high-throughput sequencing, FC [1] | Level of intensity of expression in log2 measured by high-throughput sequencing, WD [1] | Modulation (ratio of the level of intensity of expression in log2 in two stages of differentiation) measured with the Agilent chips, D7 − D0 [2] | Modulation (ratio of the level of intensity of expression in log2 in two stages of differentiation) measured with the Agilent chips, FC − D7 [2] | Modulation (ratio of the level of intensity of expression in log2 in two stages of differentiation) measured with the Agilent chips, WD − D0 [2] | Modulation (ratio of the level of intensity of expression in log2 in two stages of differentiation) measured with the Agilent chips, WD − FC [2] | Level of intensity of expression in log2 measured with the Agilent chips, D0 [2] | Level of intensity of expression in log2 measured with the Agilent chips, D7 [2] | Level of intensity of expression in log2 measured with the Agilent chips, FC [2] | Level of intensity of expression in log2 measured with the Agilent chips, WD [2] | Modulation of expression of the miRNAs in pyramidal cells (323(−)) relative to basal cells 323(+) [3] | Intensity of the level of expression in log2 in basal cells (323(+)) [3] | Intensity of the level of expression in log2 in pyramidal cells (323(−)) [3] | also measured
1 | hsa-miR-30d: human miRNA, SEQ ID No. 35 (UGUAAACAUCCCCGACUGGAAG; expressed or natural sequence; listed as Homo sapiens) | 0.64 log2 | −0.09 log2 | 1.75 log2 | 1.20 log2 | 8.76 log2 | 9.12 log2 | 9.76 log2 | 9.67 log2 | 10.87 log2 | 1.88 log2 | −0.06 log2 | 1.86 log2 | 0.05 log2 | 7.06 log2 | 8.94 log2 | 8.88 log2 | 8.92 log2 | −1.11 | 8.16 log2 | 7.05 log2 | Modulation (ratio of the level of intensity of expression in log2 at two stages of differentiation), FC − D7 [2]: −0.06 log2; Modulation (ratio of the level of intensity of expression in log2 at two stages of differentiation), WD − FC [2]: 0.05 log2
2 | hsa-let-7c: human miRNA, SEQ ID No. 159 (UGAGGUAGUAGGUUGUAUGGUU; expressed or natural sequence; listed as Homo sapiens) | 0.14 log2 | 0.21 log2 | 0.90 log2 | 0.55 log2 | 7.86 log2 | 6.96 log2 | 7.10 log2 | 7.31 log2 | 7.86 log2 | 1.61 log2 | −0.71 log2 | 1.05 log2 | 0.14 log2 | 9.10 log2 | 10.71 log2 | 10.00 log2 | 10.15 log2 | −0.48 | 9.43 log2 | 8.95 log2 | Modulation (ratio of the level of intensity of expression in log2 at two stages of differentiation), FC − D7 [2]: −0.71 log2; Modulation (ratio of the level of intensity of expression in log2 at two stages of differentiation), WD − FC [2]: 0.14 log2
3 | hsa-miR-96: human miRNA, SEQ ID No. 51 (UUUGGCACUAGCACAUUUUUGCU; expressed or natural sequence; listed as Homo sapiens) | −0.08 log2 | −0.71 log2 | 0.02 log2 | 0.81 log2 | 12.65 log2 | 5.41 log2 | 5.33 log2 | 4.62 log2 | 5.43 log2 | 1.19 log2 | −0.50 log2 | 0.64 log2 | −0.04 log2 | 8.52 log2 | 9.71 log2 | 9.21 log2 | 9.16 log2 | −1.51 | 6.81 log2 | 5.30 log2 | Modulation (ratio of the level of intensity of expression in log2 at two stages of differentiation), FC − D7 [2]: −0.50 log2; Modulation (ratio of the level of intensity of expression in log2 at two stages of differentiation), WD − FC [2]: −0.04 log2
4 | hsa-miR-191: human miRNA, SEQ ID No. 13 (CAACGGAAUCCCAAAAGCAGCUG; expressed or natural sequence; listed as Homo sapiens) | 0.90 log2 | 0.84 log2 | 2.15 log2 | 0.42 log2 | 16.82 log2 | 14.67 log2 | 15.57 log2 | 16.40 log2 | 16.82 log2 | 2.32 log2 | 0.29 log2 | 2.31 log2 | −0.30 log2 | 0.64 log2 | 2.97 log2 | 3.25 log2 | 2.95 log2 | 0.00 | 0.14 log2 | 0.14 log2 | Modulation (ratio of the level of intensity of expression in log2 in two stages of differentiation), D7 − D0 ([1]; HTS): 0.90 log2; Modulation (ratio of the level of intensity of expression in log2 in two stages of differentiation), FC − D7 ([1]; HTS): 0.84 log2; Modulation (ratio of the level of intensity of expression in log2 in two stages of differentiation), WD − FC ([1]; HTS): 0.42 log2; Abundance (%), D0 ([1]; HTS, ALI-D0): 5.71%; Abundance (%), D7 ([1]; HTS, ALI-D7): 10.68%; Abundance (%), FC ([1]; HTS, ALI-FC): 18.46%; Abundance (%), WD ([1]; HTS, ALI-WD): 18.69%
